Reference: patent US4927855A, “Levorotatory isomer of benzhydrylsulfinyl derivatives” (priority 1986, dated 1990)

What was measured:
[1] = Activity and lethality of the metabolite CRL 40 467 in male mice; format: in vivo
[2] = Behavior in male mice (stimulant effects); format: in vivo; conditions: intraperitoneal
Description: (§1) The comparative tests which were undertaken with the levorotatory derivative according to the invention (Ex. 1; Code no.: CRL 40 982), the dextrorotatory derivative (CP1; Code no.: CRL 40 983) and the corresponding racemate (CP2; Code no.: CRL 40 476) have been summarized below. Unless indicated otherwise, the 3 products studied in these tests were administered intraperitoneally as a suspension in an aqueous solution of gum arabic, in a volume of 20 ml/kg to male mice and in a volume of 5 ml/kg to male rats.

[3] = Motor activity in mice (actimeter); format: in vivo, male mice; conditions: for motor activity: 128 mg/kg and to a lesser extent 64 mg/kg, intraperitoneal four hours before 30 min recording; for intensity of stimulant effect / hyperactivity relative to the other products / level and statistical significance of hyperactivity relative to CRL 40 476: intraperitoneal four hours before the test; for level and statistical significance of hyperactivity relative to CRL 40 476: especially at 128 mg/kg
Description: as §1
The mice (6 per dose, 18 control animals) receive CRL 40 476, CRL 40 982 or CRL 40 983 four hours before being placed in an actimeter, where their motility is recorded for 30 minutes.

[4] = Toxicity in male mice, intraperitoneal administration; format: in vivo
Description: as §1

[5] = Behavior in rats; format: in vivo, male rats; conditions: intraperitoneal; for mydriatic action in male rats: all the doses used; for behavior, reactivities and variations in the rectal temperature and pupil diameter: male rats, 64, 16, 4 and 1 mg/kg
Description: as §1
at a dose of 128 mg/kg, CRL 40 476 causes excitation with an increase in the fear ration for 2 h, exophthalmos for 1 h and mydriasis for 1 for 2 h;
at a dose of 32 mg/kg, CRL 40 476 causes excitation (transient, lasting 0.5 h) with an increase in the fear reaction for 1 h, exophthalmos for 0.5-1 h and mydriasis for 1-2 h;
at a dose of 8 mg/kg, CRL 40 476 causes exophthalmos for 0.5-1 h and mydriasis for 0.5 h;
at a dose of 2 mg/kg, CRL 40 476 induces transient mydriasis appearing 1 h after administration, whereas

[6] = Pharmacokinetic study on dogs (plasma AUC, metabolism to CRL 40 467); format: in vivo; conditions: for AUCo^+9h of CRL 40 476, comparison between products administered: dogs, oral, 30 mg/kg, plasma, 0-9 h, stereoisomers not distinguished; for conversion to inactive metabolite CRL 40 467: in the organism
Description: to distinguish CRL 40 982 from the racemic and dextrorotatory compounds, a kinetic study of the metabolism was undertaken on dogs (group of four animals). In a randomized crossover procedure, each animal received the following at the rate of one oral administration per week: 2 administrations of CRL 40 476 (for assessment of the variations within individuals), 1 administration of CRL 40 982 and 1 administration of CRL 40 983. Following each of these administrations, the kinetics of the CRL 40 476 and CRL 40 467 present in the plasma were determined (without looking to see whether these two products were in the racemic, levorotatory and/or dextrorotatory form, because of the difficulties associated with determining the optical rotation of each of the optical isomers in a biological medium).
The dose administered for each of the test substances CRL 40 476, CRL 40 982 and CRL 40 983 was 30 mg/kg.
After administration of CRL 40 476, the said CRL 40 476 and its metabolite, CRL 40 467, are found in the plasma.
After the administration of CRL 40 982, the following are found in the plasma: the said CRL 40 982, which will be characterized and determined as being CRL 40 476 by way of convenience, in view of what has been said above, and a metabolite which will be characterized and determined as being CRL 40 467.
Likewise, after administration of CRL 40 983, the 2 corresponding products in the plasma will be characterized and determined as being CRL 40 476 and CRL 40 467.
The curves of the plasma concentrations of the said CRL 40 476 and CRL 40 467 as a function of time are plotted from time […] to time T=+9 h after administration of the CRL 40 476, CRL 40 982 and CRL 40 983. The areas under the curves (AUCo^+9h) are then calculated.

[7] = Immunostimulant effect in vitro
[8] = Solubility of CRL 40 982; conditions: alcohols, acetone, water, ether
[9] = Human clinical trials; format: in vivo
[10] = male mice, intraperitoneal, 1024, 512, 256, 128 and 64 mg/kg
[11] = human, once or twice a day, tablets or gelatin capsules of 50 to 100 mg

Row | Compound | stimulant effects in male mice [2] | motor activity [3] | intensity of stimulant effect / hyperactivity relative to the other products [3] | LDO (maximum non-lethal dose) [4] | stimulant effects in male rats ([5]; male rats) | mydriatic action in male rats ([5]; male rats) | AUCo^+9h of CRL 40 476, comparison between products administered [6] | conversion to inactive metabolite CRL 40 467 [6] | level and statistical significance of hyperactivity relative to CRL 40 476 [3] | behavior, reactivities and variations in the rectal temperature and pupil diameter [5] | other results
1 | O=C(O)C[S+]([O-])C(c1ccccc1)c1ccccc1 (racemic) [CRL 40 467, (±)-benzhydrylsulfinylacetic acid] | – | – | – | – | – | – | – | – | – | – | activity of metabolite ([1]; male mice, intraperitoneal, 64-1024 mg/kg): inactive; death of animals treated [1, 10]: does not cause the death of any of the animals treated; duration of brief sedation [1, 10]: 50 to 60 min; psychotropic activity ([1]; neuropsychopharmacological study): did not reveal any psychotropic activity
2 | NC(=O)C[S+]([O-])C(c1ccccc1)c1ccccc1 (racemic) [CRL 40 476, (±)-benzhydrylsulfinylacetamide] | have stimulant effects | increase in the motor activity | less than that obtained with either CRL 40 982 or CRL 40 983 | greater than or equal to 512 mg/kg | is a stimulant | has a mydriatic action at all the doses used | not statistically different | partially converted to (±)-benzhydrylsulfinylacetic acid | – | – | transient mydriasis, time of appearance after administration ([5]; male rats, 2 mg/kg): 1 h; exophthalmos, duration ([5]; male rats, 8 mg/kg): 0.5 to 1 h; mydriasis, duration ([5]; male rats, 8 mg/kg): 0.5 h; excitation (transient), duration ([5]; male rats, 32 mg/kg): 0.5 h; exophthalmos, duration ([5]; male rats, 32 mg/kg): 0.5 to 1 h; increase in the fear reaction, duration ([5]; male rats, 32 mg/kg): 1 h; mydriasis, duration ([5]; male rats, 32 mg/kg): 1 to 2 h; excitation with increase in the fear reaction, duration ([5]; male rats, 128 mg/kg): 2 h; exophthalmos, duration ([5]; male rats, 128 mg/kg): 1 h
3 | NC(=O)C[S+]([O-])C(c1ccccc1)c1ccccc1 (single isomer, unassigned; (+)) [CRL 40 983, (+)-benzhydrylsulfinylacetamide] | have stimulant effects | increase in the motor activity | – | greater than or equal to 512 mg/kg | do not have stimulant effects | devoid of this mydriatic action | not statistically different | – | greater than those due to CRL 40 476 | substantially comparable to those of the control group | conversion to inactive metabolite CRL 40 467 ([6]; listed as dextrorotatory derivative): a very high proportion
4 | NC(=O)C[S+]([O-])C(c1ccccc1)c1ccccc1 (single isomer, unassigned; (-)) [CRL 40 982, (-)-benzhydrylsulfinylacetamide] | have stimulant effects | increase in the motor activity | stimulant effect equal in intensity to that observed with CRL 40 983 | – | do not have stimulant effects | devoid of this mydriatic action | approximately twice | only a small proportion of this product is converted to inactive CRL 40 467 | greater than those due to CRL 40 476 | substantially comparable to those of the control group | LD30 [4]: about 512 mg/kg; relative toxicity [4]: more toxic than CRL 40 983 (CP1) and CRL 40 476 (CP2); bioavailability ([6]; relative to racemic CRL 40 476 and dextrorotatory CRL 40 983): better bioavailability than the racemic compound CRL 40 476 and the dextrorotatory compound CRL 40 983; immunostimulant effect [7]: immunostimulant effect was also observed; solubility [8]: soluble in alcohols and acetone and insoluble in water and ether; long-term clinical action ([9]; human, long term): arousing substance useful for hypersomnia; improvement in Alzheimer's disease [9, 11]: improvement of the symptoms of dementia, memory disorders, aphasia and ideomotor apraxia; stimulant neuropsychopharmacological profile [9, 11]: different stimulant neuropsychopharmacological profile from that of the amphetamines and tricyclic antidepressants; activity towards symptoms of dementia and loss of memory ([9]; human, short and long term, especially in the elderly): particularly active towards the symptoms of dementia and loss of memory; short-term clinical action ([9]; human, short term): purely hypnogenic, antiarousing substance; half-life ([9]; in vivo, human clinical trials, read-out: elimination half-life (converted)): ~10 h
